Patent publication US20260317340A1, “COMPOUNDS, COMPOSITIONS, AND METHODS OF TREATING DISORDERS” (Chengdu Anticancer Bioscience, Ltd., priority 2023, published 2026)
Like-named read-outs stand apart in the source and are kept apart here.

How the values were obtained:
[1] = test system: RPE-Neo or RPE-MYC or RPE-MYC expressing an EGFP-Histone 2B fusion protein; assay: Phenotypic screening assay: arrest in mitosis, change in DNA content (polyploidy), cell death; type: cell-based; settings: 20 nM to 20 μM, 24, 48 or 72 hours
Procedure: (§1) Human cancer cell lines were obtained from ATCC and cultured in DMEM (Gibco, Cleveland, TN, USA) supplemented with 5% fetal bovine serum (Gibco), penicillin (100 U/mL)-streptomycin (100 μg/mL) (Gibco, Cat. No. 15140-122), 2 mM L-glutamine (Gibco, 200 mM solution, Cat. No. 25030081), and 1 mM sodium pyruvate (Gibco, 100 mM solution, Cat. No. 11360070) at 37° C. in a humidified incubator that was maintained at 5% CO2.
Screening was conducted as described before (Li et al. 2019). Briefly, RPE-Neo or RPE-MYC or RPE-MYC expressing an EGFP-Histone 2B fusion protein were passaged as batches of 96-well plates, 18-24 hours before exposure to the chemical compounds of the present disclosure at concentrations from 20 nM to 20 μM. At 24, 48 or 72 hours after initiation of treatment, cells were analyzed for either an arrest in mitosis or a change in DNA content by GE IN-Cell Analyzer 2000. MTT assays of cellular proliferation were performed as previously described (Li et al. 2019).
(§2) As set forth in table 2 below, an values of greater than or equal to 1 nM and less than or equal to 1.0 μM is marked “A”; a value greater than 1.00 μM and less than or equal to 10.0 μM is marked “B”; a value greater than 10.0 μM and less than or equal to 30.0 μM is marked “C”; and a value greater than 30.0 μM and less than 1000 μM is marked “D.”

RPE-Neo or RPE-MYC cells = assay: MTT assay of cellular proliferation (proliferative arrest); type: cell-based; settings: read-out: Min. Effective conc. for Proliferative arrest (>50%)
Procedure: as §1
Screening was conducted as described before (Li et al. 2019). Briefly, RPE-Neo or RPE-MYC or RPE-MYC expressing an EGFP-Histone 2B fusion protein were passaged as batches of 96-well plates, 18-24 hours before exposure to the chemical compounds of the present disclosure at concentrations from 20 nM to 20 μM. At 24, 48 or 72 hours after initiation of treatment, cells were analyzed for either an arrest in mitosis or a change in DNA content by GE IN-Cell Analyzer 2000. MTT assays of cellular proliferation were performed as previously described (Li et al. 2019). […]
as §2

[2] = read-out: Min. Effective conc. for Along with Cell Death
[3] = ≥5%, read-out: Min. Effective conc. for Mitotic Arrest (≥5%)
[4] = ≥5%, read-out: Min. Effective conc. for Polyploidy (≥5%)

Measured: minimal effective concentration

Cc1cnc(C2=Cc3ccc(-c4cnn(C)c4)cc3N(Cc3ccc(C)c(F)c3)C(=O)C2)o1 [Compound 20, 1-(3-fluoro-4-methylbenzyl)-8-(1-methyl-1H-pyrazol-4-yl)-4-(5-methyloxazol-2-yl)-1,3-dihydro-2H-benzo[b]azepin-2-one]
0.001 to 1 µM: [1]; [2] | [1]; [3] | [1]; [4] | RPE-Neo or RPE-MYC cells

Cc1cnc(C2=Cc3ccc(-c4cnn(C5CC5)c4)cc3N(Cc3ccc(C)c(F)c3)C(=O)C2)o1 [Compound 21, 8-(1-Cyclopropyl-1H-pyrazol-4-yl)-1-(3-fluoro-4-methylbenzyl)-4-(5-methyloxazol-2-yl)-1,3-dihydro-2H-benzo[b]azepin-2-one]
0.001 to 1 µM: [1]; [2] | [1]; [3] | [1]; [4] | RPE-Neo or RPE-MYC cells

Cc1cnc(C2=Cc3ccc(-c4cn[nH]c4)cc3N(Cc3ccc(C)c(F)c3)C(=O)C2)o1 [Compound 22, 1-(3-fluoro-4-methylbenzyl)-4-(5-methyloxazol-2-yl)-8-(1H-pyrazol-4-yl)-1,3-dihydro-2H-benzo[b]azepin-2-one]
0.001 to 1 µM: [1]; [2] | [1]; [3] | [1]; [4] | RPE-Neo or RPE-MYC cells

Cc1cnc(C2=Cc3ccc(-c4cccnc4)cc3N(Cc3ccc(C)c(F)c3)C(=O)C2)o1 [Compound 23, 1-(3-fluoro-4-methylbenzyl)-4-(5-methyloxazol-2-yl)-8-(pyridin-3-yl)-1,3-dihydro-2H-benzo[b]azepin-2-one]
0.001 to 1 µM: [1]; [2] | [1]; [3] | [1]; [4] | RPE-Neo or RPE-MYC cells

COc1ccc(CN2C(=O)CC(c3ncc(C)o3)=Cc3ccccc32)cc1 [Compound 24, 1-(4-methoxybenzyl)-4-(5-methyloxazol-2-yl)-1,3-dihydro-2H-benzo[b]azepin-2-one]
0.001 to 1 µM: [1]; [2] | [1]; [3] | [1]; [4] | RPE-Neo or RPE-MYC cells

COc1ccc(CN2C(=O)CC(c3ncc(C)o3)=Cc3ccc(Br)cc32)cc1 [Compound 25, 8-bromo-1-(4-methoxybenzyl)-4-(5-methyloxazol-2-yl)-1,3-dihydro-2H-benzo[b]azepin-2-one]
0.001 to 1 µM: [1]; [2] | [1]; [3] | [1]; [4] | RPE-Neo or RPE-MYC cells

COc1ccc(CN2C(=O)CC(c3ncc(C)o3)=Cc3ccc(N)cc32)cc1 [Compound 26, 8-amino-1-(4-methoxybenzyl)-4-(5-methyloxazol-2-yl)-1,3-dihydro-2H-benzo[b]azepin-2-one]
0.001 to 1 µM: [1]; [2] | [1]; [3] | [1]; [4] | RPE-Neo or RPE-MYC cells

COc1ccc(CN2C(=O)CC(c3ncc(C)o3)=Cc3ccc(O)cc32)cc1 [Compound 27, 8-hydroxy-1-(4-methoxybenzyl)-4-(5-methyloxazol-2-yl)-1,3-dihydro-2H-benzo[b]azepin-2-one]
0.001 to 1 µM: [1]; [2] | [1]; [3] | [1]; [4] | RPE-Neo or RPE-MYC cells

COc1ccc(CN2C(=O)CC(c3ncc(C)o3)=Cc3ccc(-c4ccsc4)cc32)cc1 [Compound 28, 1-(4-methoxybenzyl)-4-(5-methyloxazol-2-yl)-8-(thiophen-3-yl)-1,3-dihydro-2H-benzo[b]azepin-2-one]
0.001 to 1 µM: [1]; [2] | [1]; [3] | [1]; [4] | RPE-Neo or RPE-MYC cells

COc1ccc(CN2C(=O)CC(c3ncc(C)o3)=Cc3ccc(-c4ccoc4)cc32)cc1 [Compound 29, 8-(furan-3-yl)-1-(4-methoxybenzyl)-4-(5-methyloxazol-2-yl)-1,3-dihydro-2H-benzo[b]azepin-2-one]
0.001 to 1 µM: [1]; [2] | [1]; [3] | [1]; [4] | RPE-Neo or RPE-MYC cells
